Results reported in patent US12104173B2, “Method for differentiation of human pluripotent stem cell lines in suspension culture” (AGENCY FOR SCIENCE, TECHNOLOGY AND RESEARCH, priority 2018, dated 2024).

How the values were obtained:
Type in all cases: cell-based, human
D9 O-neg hiPSC line = assay: CHIR dose: hematopoietic/erythroid differentiation of agitated hPSC-MC aggregates; conditions: for Erythroblast expansion Fold-expansion: optimal dose of CHIR-99021, 24 days in erythroblast expansion medium (static), cumulative
Experimental: (§1) Human pluripotent stem cell-microcarrier (HPSC-MC) aggregates generated from different hPSC lines were differentiated using 3 different CHIR doses (5, 10 and 15 μM for 24 hours) and were evaluated for T-bra (day 2) and KDR+PDGFRβ− (day 4) expression by flow cytometry, induction of key hematopoietic transcription factors by RT-PCR (day 4), hematopoietic precursor expansion (day 14) and erythroblast expansion (day 42).
(§2) Table 2—Hematopoietic differentiation of nine human pluripotent stem cell (hPSC) lines, from expansion in agitated microcarrier culture to erythroblast expansion—This table summarises the different stages of differentiation; hPSC expansion, mesoderm induction, hematopoietic precursor and erythroblast expansion of multiple hPSC-MC aggregate lines differentiated with optimal dose of CHIR-99021. Fold-expansion of hPSC-MC aggregates following 7 days of agitated culture, hematopoietic precursors following 14 days of culture in methylcellulose medium and erythroblast expansion following 24 days in expansion medium are reported. Flow cytometric evaluation of % T-bra+ cells on day 2 and % KDR+ cells on day 4 during mesoderm induction, % CD43+ cells during hematopoietic precursor expansion, % CD235a+ cells and fetal hemoglobin expression during erythroblast expansion stage are summarised. Total erythroid cells per hPSC seeded on day 42 was calculated as number of embryoid bodies derived on day 4 per hPSC seeded*erythroblast fold expansion*percent CD235a+ erythroblast.
(§3) Analysis of Design of experiments (DoE) outcomes and evaluation of selected conditions generated by the MODDE® software allowed the development of an optimized protocol for hematopoietic mesoderm induction of human pluripotent stem cell-microcarrier (hPSC-MC) aggregates initially expanded under continuous agitation. Approximately 2 to 4 million hPSC-MC aggregates in 3 ml of Stemline® II medium were differentiated as follows: day 1; 30 ng/ml of BMP4, 50 ng/ml VEGF165, 12 μM CHIR-99021 (Selleck Chemicals, USA), 50 ng/ml Activin A, day 2; 30 ng/ml of BMP4, 50 ng/ml VEGF165, 50 ng/ml Activin A, day 3: 30 ng/ml of BMP4, 50 ng/ml VEGF165 and 20 ng/ml bFGF. Four days post-differentiation, single cells derived by TrypLE™ Express (ThermoFisher Scientific) treatment and strained through 40 μm cell strainers (Greiner Bio-one, Germany) were used for hematopoietic precursor and erythroblast expansion and erythroblast terminal maturation as detailed herein. Hematopoietic and erythroblast differentiation were monitored by flow cytometry, quantitative real-time PCR, immunoblotting and microscopic imaging. Oxygen binding affinity of differentiated erythroblast was determined using a Hemox Analyzer (TCS Scientific Corp, USA).
(§4) HPSC-MC aggregates were dissociated into single cells by treatment with TrypLE. Express (ThermoFisher Scientific) for 5 minutes at 37° C., passed through 40 μm cell strainer (Greiner Bio-one), centrifuged at 1300 rpm for 3 minutes to pellet cells, and rinsed once with phosphate buffered saline (PBS) before re-suspension in Stemline II medium. Two hundred thousand cells in 100 μl of Stemline II medium were transferred to a 6-well ultra-low attachment plate and cultured with Blast growth medium (BGM) for 2 weeks in static conditions as detailed herein.
(§5) Hematopoietic precursors were mixed with equal volume of Stemline II medium containing 50 ng/ml of SCF (STEMCELL. Technologies) and 3 U/ml EPO (Peprotech, USA), for an additional 7 days. Subsequently, cells were diluted 10-fold with PBS and pelleted by centrifugation at 3000 rpm for 10 minutes. […]

D5 O-neg hiPSC line = assay: as above; conditions: for Erythroblast expansion Fold-expansion: optimal dose of CHIR-99021, 24 days in erythroblast expansion medium (static), cumulative
Experimental: as §1, §2, §3, §4, §5

X13 O-neg hiPSC line = assay: as above; conditions: for Erythroblast expansion Fold-expansion: optimal dose of CHIR-99021, 24 days in erythroblast expansion medium (static), cumulative; for Total erythroid cells per hPSC seeded (day 42): optimal dose of CHIR-99021, CD235a+ erythroid cells
Experimental: as §1, §2, §3, §4, §5

BR7 O-neg hiPSC line = assay: as above; conditions: for Erythroblast expansion Fold-expansion: optimal dose of CHIR-99021, 24 days in erythroblast expansion medium (static), cumulative
Experimental: as §1, §2, §3, §4, §5

[1] = test system: X13 induced pluripotent stem cells (iPSCs) on microcarriers; assay: screening of Wnt pathway activators: mesoderm induction (T-bra, KDR+PDGFRα−) by flow cytometry; conditions: at 72 hours, compared to other Wnt pathway modulators
Experimental: (A) is a column graph showing two different concentrations of seven Wnt pathway activators (BIO, SB-216763, CHIR98014, Inhibitor VIII, Kenpaullone, DRF053 dihydrochloride and Wnt3a). which were selected from literature reviews and screened with CHIR99021 as a control for the disclosed hematopoietic differentiation protocol. The viability of the X13 induced pluripotent stem cells (iPSCs) on microcarriers were tabulated accordingly 24 hours post treatment of the various Wnt pathway modulators. […] (B) is a column graph showing the percentage of mesogerm induction.
Human induced pluripotent stem cell-microcarrier (hiPSC-MC) aggregates (1×10^6 cells/ml, or 1e6 cells/nil) were transferred to mesoderm induction medium (cytokines all from Stemcell Technologies) plus Stemline II Hematopoietic Stem Cell Expansion medium (SL2) in either 6-well ultra-low attachment plates (5 ml) under continuous agitation at 75 rpm or 125 ml spinner flasks (50 ml) under continuous agitation at 36 rpm. Daily medium changes as indicated: Day 0: SL2+30 ng/ml BMP4+50 ng/ml VEGF-165+40 ng/ml Activin A+12-15 μM CHIR-99021; Day 1: SL2+30 ng/ml BMP4+50 ng/ml VEGF-165+40 ng/ml Activin A; Day 2: SL2+20 ng/ml BMP4+30 ng/ml VEGF165+5 ng/ml Activin A+10 ng/ml bFGF+20 ng/ml SCF+0.4 ng/ml β-estradiol. Samples were collected on day 1 and day 3 for flow cytometry analysis of T-brachyury (T-Bra) and KDR/PDGFRα cells, respectively.

[2] = 15 μM CHIR for 24 hours, day 2, flow cytometry
[3] = 15 μM CHIR for 24 hours, day 4, flow cytometry
[4] = optimal dose of CHIR-99021, 14 days in methyl cellulose medium
[5] = optimal dose of CHIR-99021, 14 days in methyl cellulose medium (static)
[6] = optimal dose of CHIR-99021, day 2
[7] = optimal dose of CHIR-99021, erythroblast expansion stage
[8] = optimal dose of CHIR-99021, fetal hemoglobin, flow cytometry
[9] = 15 μM CHIR dose, day 14 post differentiation

Cc1c[nH]c(-c2cnc(NCCNc3ccc(C#N)cn3)nc2-c2ccc(Cl)cc2Cl)n1 [CHIR-99021, 6-[[2-[[4-(2,4-Dichlorophenyl)-5-(5-methyl-1H-imidazol-2-yl)-2-pyrimidinyl]amino]ethyl]amino]-3-pyridinecarbonitrile]
T-Bra+ cells (D9 O-neg hiPSC line; [2]): 39±5.37% | KDR+PDGFRβ- cells (D9 O-neg hiPSC line; [3]): 18.07±0.6% | Total erythroid cells per hPSC seeded (day 42) (D9 O-neg hiPSC line; optimal dose of CHIR-99021): 63 | Hematopoietic precursor expansion % CD43 (D9 O-neg hiPSC line; [4]): 21.3% | Hematopoietic precursor expansion Fold-expansion (D9 O-neg hiPSC line; [5]): 6.0 fold | Erythroblast expansion Fold-expansion (D9 O-neg hiPSC line; day 42): 121 fold | Erythroblast expansion Fold-expansion (D9 O-neg hiPSC line; day 42, listed as CHIR): 121.2±36.89 fold | Mesoderm induction % T-Bra (D9 O-neg hiPSC line; [6]): 41.8% | Erythroblast expansion % CD235a+ (D9 O-neg hiPSC line; [7]): 57.5% | Erythroblast expansion Hemoglobin expression (D9 O-neg hiPSC line; [8]): 97.8 | fold-expansion of hematopoietic precursors (D5 O-neg hiPSC line; [9]): 7.99±0.82 fold | T-Bra+ cells (D5 O-neg hiPSC line; [2]): 55.6±8.26% | KDR+PDGFRβ- cells (D5 O-neg hiPSC line; [3]): 35.77±1.53% | Total erythroid cells per hPSC seeded (day 42) (D5 O-neg hiPSC line; optimal dose of CHIR-99021): 2308 | Hematopoietic precursor expansion % CD43 (D5 O-neg hiPSC line; [4]): 27.7% | Hematopoietic precursor expansion Fold-expansion (D5 O-neg hiPSC line; [5]): 7.9 fold | Erythroblast expansion Fold-expansion (D5 O-neg hiPSC line; day 42): 3712 fold | Erythroblast expansion Fold-expansion (D5 O-neg hiPSC line; day 42, listed as CHIR): 3712±1651 fold | Mesoderm induction % T-Bra (D5 O-neg hiPSC line; [6]): 55.6% | Erythroblast expansion % CD235a+ (D5 O-neg hiPSC line; [7]): 74.6% | Erythroblast expansion Hemoglobin expression (D5 O-neg hiPSC line; [8]): 99.2 | fold-expansion of hematopoietic precursors (X13 O-neg hiPSC line; [9]): 9.93±0.28 fold | T-Bra+ cells (X13 O-neg hiPSC line; [2]): 60.9±8.55% | KDR+PDGFRβ- cells (X13 O-neg hiPSC line; [3]): 40.8±1.34% | Hematopoietic precursor expansion % CD43 (X13 O-neg hiPSC line; [4]): 43.9% | Hematopoietic precursor expansion Fold-expansion (X13 O-neg hiPSC line; [5]): 9.9 fold | Erythroblast expansion Fold-expansion (X13 O-neg hiPSC line; day 42): 12605 fold | Erythroblast expansion Fold-expansion (X13 O-neg hiPSC line; day 42, listed as CHIR): 12605±2126 fold | Total erythroid cells per hPSC seeded (day 42) (X13 O-neg hiPSC line): 7607 | Total erythroid cells per hPSC seeded (day 42) (X13 O-neg hiPSC line; listed as CHIR): 7607±1016 | Mesoderm induction % T-Bra (X13 O-neg hiPSC line; [6]): 60.9% | Erythroblast expansion % CD235a+ (X13 O-neg hiPSC line; [7]): 67.4% | Erythroblast expansion Hemoglobin expression (X13 O-neg hiPSC line; [8]): 96.9 | fold-expansion of hematopoietic precursors (BR7 O-neg hiPSC line; [9]): 5.81±0.92 fold | T-Bra+ cells (BR7 O-neg hiPSC line; [2]): 20.8±3.8% | KDR+PDGFRβ- cells (BR7 O-neg hiPSC line; [3]): 18.6±1.57% | Total erythroid cells per hPSC seeded (day 42) (BR7 O-neg hiPSC line; optimal dose of CHIR-99021): 12 | Hematopoietic precursor expansion % CD43 (BR7 O-neg hiPSC line; [4]): 14.3% | Hematopoietic precursor expansion Fold-expansion (BR7 O-neg hiPSC line; [5]): 5.8 fold | Erythroblast expansion Fold-expansion (BR7 O-neg hiPSC line; day 42): 31.5 fold | Erythroblast expansion Fold-expansion (BR7 O-neg hiPSC line; day 42, listed as CHIR): 31.48±7.7 fold | Mesoderm induction % T-Bra (BR7 O-neg hiPSC line; [6]): 20.8% | Erythroblast expansion % CD235a+ (BR7 O-neg hiPSC line; [7]): 33.8% | Erythroblast expansion Hemoglobin expression (BR7 O-neg hiPSC line; [8]): 95.5 | KDR+PDGFRα− population [1]: significantly highest
